S_aureus_Smith_WT_MIC and MIC data for 13 compounds are collected here from patent US20140243302A1, “BRIDGED BICYCLIC COMPOUNDS FOR THE TREATMENT OF BACTERIAL INFECTIONS” (priority 2011, published 2014).

In brackets after ≈: the same amount, converted by molar mass.

The experiment relates to Staphylococcus aureus Smith. Briefly: MIC assay, modified agar dilution (CLSI), S. aureus Smith. The settings on record: agar dilution, 35° C., 16-20 hr, lowest concentration that completely inhibited growth; for MIC: Staphylococcus aureus, read-out: S_aureus_Smith_WT_MIC. Format: cell-based. In outline:
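Strains were spotted at about 1×10^4 CFU onto compound-containing Mueller Hinton agar (two-fold series, 128-0.001 μg/mL), horse blood 5% added for pneumococcus and enterococcus. MIC read after 16-20 hr at 35 °C, following a modified CLSI agar dilution method.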
In general terms: In agar dilution the substance is mixed into plates at graded concentrations.

Where the note is “Hydrochloride”, `COc1ccc2ncc(F)c(CCC34CCC(NCc5ccc6c(n5)NC(=O)C(C)O6)(CC3)CO4)c2n1.Cl` (single isomer, unassigned) [Example 100a, 6-((1-(2-(3-Fluoro-6-methoxy-1,5-naphthyridin-4-yl)ethyl)-2-oxabicyclo[2.2.2]octan-4-ylamino)methyl)-2-methyl-2H-pyrido[3,2-b][1,4]oxazin-3(4H)-one Hydrochloride] displayed a S_aureus_Smith_WT_MIC of 0.250 µg/mL.
Consider `C=CCOc1ccc2ncc(F)c(CCC34CCC(NCc5ccc6c(n5)NC(=O)CO6)(CC3)CO4)c2n1` [Example 186, 6-{[(1-{2-[3-Fluoro-6-(prop-2-en-1-yloxy)-1,5-naphthyridin-4-yl]ethyl}-2-oxabicyclo[2.2.2]oct-4-yl)amino]methyl}-2H-pyrido[3,2-b][1,4]oxazin-3(4H)-one], for which the MIC was determined as 0.063 µg/mL (≈ 0.121 µM).
As for `COc1ccc2ncc(Cl)c(CCC34CCC(NCc5ccc6cccnc6n5)(CC3)CC4)c2n1` [Example 58, N-((1,8-Naphthyridin-2-yl)methyl)-4-(2-(3-chloro-6-methoxy-1,5-naphthyridin-4-yl)ethyl)bicyclo[2.2.2]octan-1-amine], the MIC was found to be 0.125 µg/mL (≈ 0.256 µM).
Still for that read-out and setting: with `NCCCCOc1ccc2ncc(F)c(CCC34CCC(NCc5ccc6c(n5)NC(=O)CO6)(CC3)CO4)c2n1` [Example 39, 6-((1-(2-(6-(4-Aminobutoxy)-3-fluoro-1,5-naphthyridin-4-yl)ethyl)-2-oxabicyclo[2.2.2]octan-4-ylamino)methyl)-2H-pyrido[3,2-b][1,4]oxazin-3(4H)-one] the figure was 0.5 µg/mL (≈ 0.908 µM); with `O=C1COc2ccc(CNC34CCC(CCc5c(F)cnc6ccc(OCCCCCO)nc56)(CC3)OC4)nc2N1` [Example 37, 6-((1-(2-(3-Fluoro-6-(5-hydroxypentyloxy)-1,5-naphthyridin-4-yl)ethyl)-2-oxabicyclo[2.2.2]octan-4-ylamino)methyl)-2H-pyrido[3,2-b][1,4]oxazin-3(4H)-one], 0.063 µg/mL (≈ 0.111 µM); with `COc1ccc2ncc(F)c(CCC34CCC(NCc5cc6c(cn5)OCCO6)(CC3)CO4)c2n1` [Example 61, N-((2,3-Dihydro-[1,4]dioxino[2,3-c]pyridin-7-yl)methyl)-1-(2-(3-fluoro-6-methoxy-1,5-naphthyridin-4-yl)ethyl)-2-oxabicyclo[2.2.2]octan-4-amine], 0.063 µg/mL (≈ 0.131 µM).
Compound `COc1ccc2ncc(F)c(C(C)C(O)C34CCC(NCc5ccc6c(n5)NC(=O)CO6)(CC3)CO4)c2n1` (single isomer, unassigned) [Example 151a, 6-((1-(2-(3-Fluoro-6-methoxy-1,5-naphthyridin-4-yl)-1-hydroxypropyl)-2-oxabicyclo[2.2.2]octan-4-ylamino)methyl)-2H-pyrido[3,2-b][1,4]oxazin-3(4H)-one] registered a S_aureus_Smith_WT_MIC of 32.0 µg/mL.
On to `CN(C)c1ccc2ncc(F)c(CCC34CCC(NCc5ccc6c(n5)NC(=O)CO6)(CC3)CO4)c2n1` [Example 29, 6-((1-(2-(6-(Dimethylamino)-3-fluoro-1,5-naphthyridin-4-yl)ethyl)-2-oxabicyclo[2.2.2]octan-4-ylamino)methyl)-2H-pyrido[3,2-b][1,4]oxazin-3(4H)-one], for which the MIC is 0.25 µg/mL (≈ 0.494 µM).
Same read-out and setting: the same measure for `COc1ccc2ncc(F)c(CC(C)(O)C34CCC(NCc5ccc6c(n5)NC(=O)CO6)(CC3)CO4)c2n1.Cl` (stereo not shown) [Example 190, 6-((1-(1-(3-Fluoro-6-methoxy-1,5-naphthyridin-4-yl)-2-hydroxypropan-2-yl)-2-oxabicyclo[2.2.2]octan-4-ylamino)methyl)-2H-pyrido[3,2-b][1,4]oxazin-3(4H)-one Hydrochloride]: 0.063 µg/mL; for `COc1ccc2ncc(F)c(CC(=O)C34CCC(NCc5ccc6c(n5)NC(=O)CO6)(CC3)CO4)c2n1` [Example 23, 6-((1-(2-(3-Fluoro-6-methoxy-1,5-naphthyridin-4-yl)acetyl)-2-oxabicyclo[2.2.2]octan-4-ylamino)methyl)-2H-pyrido[3,2-b][1,4]oxazin-3(4H)-one]: 0.125 µg/mL (≈ 0.246 µM).
As for `COc1ccc2ncc(F)c(CCC34CCC(NCc5cc6cccnc6s5)(CC3)CO4)c2n1` [Example 77, 1-(2-(3-Fluoro-6-methoxy-1,5-naphthyridin-4-yl)ethyl)-N-(thieno[2,3-b]pyridin-2-ylmethyl)-2-oxabicyclo[2.2.2]octan-4-amine], the MIC was determined as 0.125 µg/mL (≈ 0.261 µM).
Same read-out and setting: the same measure for `O=C1COc2ccc(CNC34CCC(CCN5C(=O)N6CCCN=C6c6ccccc65)(CC3)OC4)nc2N1` [Example 118, 6-(((1-(2-(6-Oxo-3,4-dihydro-2H-pyrimido[1,2-c]quinazolin-7(6H)-yl)ethyl)-2-oxabicyclo[2.2.2]octan-4-yl)amino)methyl)-2H-pyrido[3,2-b][1,4]oxazin-3(4H)-one]: 32 µg/mL (≈ 61.9 µM).
As for `COc1ccc2ncc(Cl)c(C(O)CC34CCC(NCc5ccc6c(n5)NC(=O)CO6)(CC3)CC4)c2n1` (single isomer, unassigned) [Example 13a, 6-((4-(2-(3-Chloro-6-methoxy-1,5-naphthyridin-4-yl)-2-hydroxyethyl)bicyclo[2.2.2]octan-1-ylamino)methyl)-2H-pyrido[3,2-b][1,4]oxazin-3(4H)-one], the S_aureus_Smith_WT_MIC came out at 0.0310 µg/mL.
